Test results: US20230406859A1, “METHOTREXATE ANALOGS AND METHODS OF USE” (The United States of America, as represented by the …, priority 2020, published 2023)
Read-outs that look alike come from different tables or passages of the source.

Tests used:
HBL1 cells = test: CellTiter-Glo assay of cellular ATP levels in HBL1 cells (16 h); type: cell-based
Method: (§1) Cell Culture Methods: Cells (HBL1, immortalized fibroblasts from a healthy donor, or 293T) were seeded at the numbers indicated in a 12-well plate in 500 ul. […] Human embryonic kidney HEK293T cells and immortalized fibroblasts were maintained in DMEM (Gibco) supplemented with 10% fetal bovine serum (Hyclone), 2 mmol/L L-glutamine, Hepes (Gibco), and 100 U/mL penicillin/streptomycin (Invitrogen). The lymphoma cell line HBL1 was maintained in RPMI (Life Technology) supplemented with 5% fetal bovine serum (Hyclone), 2 mmol/L 1-glutamine, Hepes (Gibco), and 100 U/mL penicillin/streptomycin (Invitrogen). Cells were cultured in incubators maintained at 37° C., with 5% CO2 and 85% humidity.
(§2) Cell-Titer-Glo viability assays: Five μL of cells (2500 cells) from the 12-well plate culture were plated into white 1536-well plates (Greiner, Monroe, NC, 789173-F) in 6 replicates. CellTiter-Glo Luminescent Cell Viability Assay (CTG) (Promega, G7572), 2.5 μL/well reagent was added with a BioRAPTR FRD (Beckman Coulter, Sykesville, MD), plates were incubated in the dark at ambient temperature for 10 min, and luminescence measured with a ViewLux 1430 Ultra HTS (Perkin Elmer, Waltham, MA).

HBL1 cell line = test: CellTiter-Glo cell viability (cytotox), HBL1 cell line, 72 hours; type: cell-based
Method: as §2, with “CellTiter-Glo” for “Cell-Titer-Glo”

293T cells = test: CellTiter-Glo ATP levels in 293T cells; type: cell-based, human
Method: as §1, §2

fibroblasts = test: CellTiter-Glo ATP levels in fibroblasts; type: cell-based
Method: as §1, §2

[1] = system: MTX-resistant HBL1 cell line; type: cell-based
Method: as §2, with “CellTiter-Glo” for “Cell-Titer-Glo”

[2] = target: T1, thymidylate synthase (TS) (Homo sapiens, UniProt P04818); test: Western blot of thymidylate synthase levels in fibroblasts; type: cell-based; details: 16 h
[3] = target: T1, thymidylate synthase (TS); test: Western blot of thymidylate synthase levels in HBL1 cells; type: cell-based; set-up: Western blot detection of folate-cofactor dependent enzyme levels after treatment of HBL1 cells; endogenous in cells; host or cells: HBL1 lymphoma cell line; details: 1 μM, 16 h
DHFR [4] = target: T2, DHFR (Homo sapiens, UniProt P00374); test: Western blot detection of DHFR levels in fibroblasts; type: cell-based; details: 16 h at 1 μM
T2 construct: Western blot detection of DHFR levels after treatment of HBL1 cells for 16 h; endogenous in cells; host or cells: HBL1 lymphoma cell line
T2 sequence (P00374 1-187): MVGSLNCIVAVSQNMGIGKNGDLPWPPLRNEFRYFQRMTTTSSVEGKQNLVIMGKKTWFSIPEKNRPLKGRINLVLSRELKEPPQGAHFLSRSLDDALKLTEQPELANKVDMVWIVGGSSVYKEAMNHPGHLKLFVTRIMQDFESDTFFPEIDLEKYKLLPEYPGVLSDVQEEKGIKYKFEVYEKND
Method: as §1
(§3) Western blotting: Cells at confluence from 12-well plate treatments were washed with PBS and lysed in 75 μL/well NP40 lysis buffer (Cell Signaling), subjected to agitation and centrifugation. Approximately 100 μg of total protein was used per analysis. Proteins were sized on a NuPAGE 12% Bis-Tris Gel, 1.0 mm×10 wells, proteins transferred to 0.2 μm nitrocellulose membrane for 60 min followed by blocking with 5% t milk in TBS-T for 1 h at ambient temperature with gentle shaking. […]

DHFR [5] = target: T2, DHFR; type: cell-based; details: HBL1 cells, Western blot
From the text: (§4) Human embryonic kidney HEK293T cells and immortalized fibroblasts were maintained in DMEM (Gibco) supplemented with 10% fetal bovine serum (Hyclone), 2 mmol/L L-glutamine, Hepes (Gibco), and 100 U/mL penicillin/streptomycin (Invitrogen). The lymphoma cell line HBL1 was maintained in RPMI (Life Technology) supplemented with 5% fetal bovine serum (Hyclone), 2 mmol/L 1-glutamine, Hepes (Gibco), and 100 U/mL penicillin/streptomycin (Invitrogen).
Western blotting: Cells at confluence from 12-well plate treatments were washed with PBS and lysed in 75 μL/well NP40 lysis buffer (Cell Signaling), subjected to agitation and centrifugation. Approximately 100 μg of total protein was used per analysis. […] Blots were first incubated with 1:2000 dilution of anti-human DHFR antibody (Abcam, ab124814, host rabbit) for 16 h at 4° C. with shaking, washed 3× with TBS-T and incubated with 1:2000 dilution of anti-human β-actin primary antibody (Cell Signaling, host mouse) for 1 h at ambient temperature with shaking. Blots were then washed 3× with TBS-T and incubated with 1:5000 HRP secondary antibody (Novex, anti-Rabbit IgG raised in Goat, 1 mg/ml) for 1 h at ambient temperature, then washed with 3×TBS-T and developed with Pierce ECL Dura reagent for 5 min. Immunoreactive bands were imaged on a ChemiDoc Imaging System (Bio-Rad) with 20 s chemiluminescence exposure. The molecular weight marker ladder was imaged with colorimetric auto-exposure, and both images merged.

[6] = target: T1, thymidylate synthase (TS); test: Western blot of thymidylate synthase levels in 293T cells; type: cell-based; details: 16 h
DHFR [7] = target: T2, DHFR; test: Western blot detection of DHFR levels in 293T cells; type: cell-based; details: 16 h at 1 μM
Method: as §1, §3

[8] = target: T3, human DHFR-HiBiT fusion protein (Homo sapiens, UniProt P00374); test: DHFR-HiBiT assay (high-throughput DHFR abundance) in HBL1 cells; type: cell-based; details: HBL1, 24 h, read-out: efficacy (%)
T3 construct: expressed in transfected cells; host or cells: HBL1 cells retrovirally infected with pBMN-Ires-Lyt-2 carrying DHFR-HiBiT
T3 sequence (P00374 with tags, fused parts or gaps): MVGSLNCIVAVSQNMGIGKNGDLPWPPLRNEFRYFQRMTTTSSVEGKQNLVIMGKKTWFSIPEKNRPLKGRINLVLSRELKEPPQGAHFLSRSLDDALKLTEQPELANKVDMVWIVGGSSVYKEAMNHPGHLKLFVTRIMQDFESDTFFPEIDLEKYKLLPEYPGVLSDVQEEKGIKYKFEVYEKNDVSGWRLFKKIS
From the text: The human DHFR-HiBiT construct was synthetized (Bio Basic) and cloned into the retroviral vector pBMN-Ires-Lyt-2 (provided by G. Nolan, Stanford University, Stanford, CA) which expresses the coding region of mouse CD8a (Lyt-2) using the restriction sites BamHI/XhoI. All constructs were sequenced to validate authenticity. Infected cells were positively selected based on murine CD8a expression using magnetic beads (Miltenyi Biotech).
as §4, with “Cell culture: Human” for “Human”, “cells” for “cells and immortalized fibroblasts”, “1-glutamine, HEPES (Gibco)” for “L-glutamine, Hepes (Gibco),”, “were” for “was”, “L-glutamine, HEPES (Gibco)” for “1-glutamine, Hepes (Gibco),”
Transfection and retroviral infections: Transfections were performed using Lipofectamine 2000 (Invitrogen) according to the manufacturer's protocol. For retroviral infections, viruses were produced in HEK293T cells and used to infect HBL1 cell line. […] Supernatants containing the retrovirus were collected and filtered at 48- and 72-hours post-transfection. HBL1 cells were centrifuged and then resuspended with the retroviral supernatant with 8 μg/ml of polybrene. The cells were spin-infected twice on consecutive days at 2,500 rpm, at RT, for 90 minutes.
Lytic HiBiT Detection: Cells were plated in solid white 1536-well tissue culture plates (Greiner), at the concentration of 2000 cells/well. After treatment, an equal volume of Nano-Glo HiBiT Lytic Reagent (Promega) containing the substrate furimazine and Large BiT (LgBiT) was added to the cells according to the manufacturer's protocol. Cells were incubated for 10 min at room temperature, and luminescence was measured using a Perkin Elmer ViewLux microplate imager with 30 seconds of exposure time.

DHFR [9] = target: T4, DHFR (Homo sapiens, UniProt P00374); test: Western blot for DHFR in MTX-resistant HBL1 cell line; type: cell-based; set-up: dose or concentration left out as unconfirmed
T4 construct: endogenous in cells
T4 sequence (P00374 2-187): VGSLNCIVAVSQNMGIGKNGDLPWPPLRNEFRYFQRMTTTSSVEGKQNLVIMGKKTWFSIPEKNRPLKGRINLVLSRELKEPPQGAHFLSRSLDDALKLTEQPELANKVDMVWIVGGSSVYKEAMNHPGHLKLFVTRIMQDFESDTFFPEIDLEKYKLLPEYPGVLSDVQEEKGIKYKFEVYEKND
Method: Protein expression analysis: Cells were collected and homogenized in lysis buffer (20 mM Tris-HCl (pH 7.5), 150 mM NaCl, 1 mM Na2EDTA, 1 mM EGTA 1% Triton, 2.5 mM sodium pyrophosphate) with freshly added protease inhibitors (50 mM HEPES, pH 7.6, 150 mM NaCl, 20 mM EDTA, 10 mM sodium orthovanadate (Vanadate, Na3VO4), 100 mM NaF, 2% Triton X-100, 10 μg/ml aprotinin, 10 μg/ml leupeptin, 0.5 mm phenylmethyl sulfonyl fluoride). […] The membrane was immunoblotted with rabbit polyclonal anti-DHFR or mouse anti-β-actin antibodies. The immune complexes were detected by horseradish peroxidase-conjugated secondary antibodies (Thermo Scientific) and developed using a ChemiDoc MP Imager (Bio-Rad). To detect HiBiT-tagged proteins, the membrane was rinsed for 1 h in TBST and then incubated in LgBiT/buffer solution overnight. Nano-Glo® Luciferase Assay Substrate furimazine was added and incubated 5 minutes, and the blot was exposed on the imager.

[10] = HBL1 cell line, CellTiter-Glo, unit inferred

T1 sequence (P04818 2-313 limits assumed): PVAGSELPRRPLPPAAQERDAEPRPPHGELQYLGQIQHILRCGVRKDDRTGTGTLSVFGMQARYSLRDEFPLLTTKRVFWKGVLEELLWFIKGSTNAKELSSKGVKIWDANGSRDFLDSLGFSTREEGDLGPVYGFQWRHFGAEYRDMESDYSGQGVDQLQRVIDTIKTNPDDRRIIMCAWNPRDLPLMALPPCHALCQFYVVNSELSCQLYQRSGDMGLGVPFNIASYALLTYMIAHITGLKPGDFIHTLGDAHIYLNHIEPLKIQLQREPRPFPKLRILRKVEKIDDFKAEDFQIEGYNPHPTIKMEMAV

**Q.** Which results are given for CN(Cc1cnc2nc(N)nc(N)c2n1)c1ccc(C(=O)N[C@@H](CCC(=O)O)C(=O)O)cc1 [MTX, (4-(((2,4-diaminopteridin-6-yl)methyl)(methyl)amino)benzoyl)-L-glutamic acid, reference compound]?
**A.** effect on cellular ATP levels (acute cellular toxicity) (HBL1 cells): significantly depleted ATP levels; IC50 (HBL1 cells; HBL1, 16 h, read-out: IC50 for cellular ATP-depletion): ~200 nM; IC50 (HBL1 cell line): 57.1 nM; effect on ATP levels (293T cells): ATP-depleting properties; effect on ATP levels (fibroblasts): ATP-depleting properties; cellular toxicity in MTX-resistant HBL1 cell line [1]: greatly decreased

**Q.** CN(Cc1cnc2nc(N)nc(N)c2n1)c1ccc(C(=O)N[C@@H](CCC(=O)NCCCNc2cccc3c2C(=O)N(C2CCC(=O)NC2=O)C3=O)C(=O)O)cc1 (stereo partly drawn) [NCGC00685938, N2-(4-(((2,4-diaminopteridin-6-yl)methyl)(methyl)amino)benzoyl)-N5-(3-((2-(2,6-dioxopiperidin-3-yl)-1,3-dioxoisoindolin-4-yl)amino)propyl)-L-glutamine] was tested. Which “effect on TS protein level” value [2] did it give?
**A.** low but detectable increases in TS

**Q.** What about the IC50 (HBL1 cell line; [10]) of the same compound?
**A.** 1660 nM

**Q.** What about the “effect on TS protein level” value [3] of the same compound?
**A.** slight increase in TS

**Q.** And the “effect on DHFR protein levels” value (DHFR [4])?
**A.** significant degradation of DHFR

**Q.** What about the “effect on DHFR protein levels” value (DHFR [5]) of the same compound?
**A.** essentially inactive

**Q.** And the “effect on TS protein level” value [6]?
**A.** no significant change in TS levels

**Q.** What about the “effect on DHFR protein levels” value (DHFR [7]) of the same compound?
**A.** essentially inactive

**Q.** What does the source list for CN(Cc1cnc2nc(N)nc(N)c2n1)c1ccc(C(=O)N[C@@H](CCC(=O)NCCOCCOCCOCCNC(=O)COc2cccc3c2C(=O)N(C2CCC(=O)NC2=O)C3=O)C(=O)O)cc1 (stereo partly drawn) [NCGC00685965, (19S)-19-(4-(((2,4-diaminopteridin-6-yl)methyl)(methyl)amino)benzamido)-1-((2-(2,6-dioxopiperidin-3-yl)-1,3-dioxoisoindolin-4-yl)oxy)-2,16-dioxo-6,9,12-trioxa-3,15-diazaicosan-20-oic acid]?
**A.** effect on cellular ATP levels (acute cellular toxicity) (HBL1 cells): did not significantly alter ATP levels even up to 1 μM; IC50 (HBL1 cell line; [10]): 5910 nM; Dmax [8]: 64.2%; depletion of cellular DHFR (DHFR [9]): remained capable of depleting cellular DHFR; effect on TS protein level [3]: slight increase in TS; effect on DHFR protein levels (DHFR [5]): remained capable of depleting cellular DHFR; effect on DHFR protein levels (DHFR [5]; listed as MTX-PROTAC 9): robust DHFR depletion
